Assay results taken from ChEMBL document CHEMBL3868635, “Bromomethylthioindole Inspired Carbazole Hybrids as Promising Class of Anti-MRSA Agents” (ACS Med Chem Lett, 2016).
In brackets after ≈: the same amount, converted by molar mass.

Experiments:
Staphylococcus aureus [1] = experiment: Antibacterial activity against methicillin-resistant Staphylococcus aureus ATCC 43300 incubated for overnight measured after 20 to 24 hrs by broth microdilution method; format: functional
Staphylococcus aureus [2] = experiment: Antibacterial activity against methicillin-susceptible Staphylococcus aureus ATCC 29213 incubated for overnight measured after 20 to 24 hrs by broth microdilution method; format: functional
Staphylococcus aureus [3] = experiment: Antibacterial activity against methicillin-resistant Staphylococcus aureus 4N216 incubated for overnight measured after 20 to 24 hrs by broth microdilution method; format: functional
Escherichia coli = experiment: Antibacterial activity against Escherichia coli ATCC 25922 incubated for overnight measured after 20 to 24 hrs by broth microdilution method; format: functional
Acinetobacter baumannii = experiment: Antibacterial activity against Acinetobacter baumannii ATCC 19606 incubated for overnight measured after 20 to 24 hrs by broth microdilution method; format: functional
Staphylococcus aureus [4] = experiment: Antibacterial activity against methicillin-resistant Staphylococcus aureus C217 incubated for overnight measured after 20 to 24 hrs by broth microdilution method; format: functional
Staphylococcus aureus [5] = experiment: Antibacterial activity against vancomycin-intermediate and daptomycin-nonsusceptible methicillin-resistant Staphylococcus aureus Z172 incubated for overnight measured after 20 to 24 hrs by broth microdilution method; format: functional
Enterococcus faecalis [6] = experiment: Antibacterial activity against vancomycin-resistant Enterococcus faecalis ATCC 51299 incubated for overnight measured after 20 to 24 hrs by broth microdilution method; format: functional
Klebsiella pneumoniae = experiment: Antibacterial activity against Klebsiella pneumoneae ATCC 700603 incubated for overnight measured after 20 to 24 hrs by broth microdilution method; format: functional
Staphylococcus aureus [7] = experiment: Antibacterial activity against methicillin-resistant Staphylococcus aureus L166 incubated for overnight measured after 20 to 24 hrs by broth microdilution method; format: functional
Pseudomonas aeruginosa = experiment: Antibacterial activity against Pseudomonas aeruginosa ATCC 27853 incubated for overnight measured after 20 to 24 hrs by broth microdilution method; format: functional
Staphylococcus aureus [8] = experiment: Antibacterial activity against methicillin-resistant Staphylococcus aureus Z234 incubated for overnight measured after 20 to 24 hrs by broth microdilution method; format: functional
Staphylococcus aureus [9] = experiment: Antibacterial activity against methicillin-resistant Staphylococcus aureus M013 incubated for overnight measured after 20 to 24 hrs by broth microdilution method; format: functional
Staphylococcus aureus [10] = experiment: Antibacterial activity against methicillin-susceptible Staphylococcus aureus M056 incubated for overnight measured after 20 to 24 hrs by broth microdilution method; format: functional
Staphylococcus aureus [11] = experiment: Antibacterial activity against methicillin-resistant Staphylococcus aureus N043 incubated for overnight measured after 20 to 24 hrs by broth microdilution method; format: functional
Staphylococcus aureus [12] = experiment: Antibacterial activity against methicillin-resistant Staphylococcus aureus Y069 incubated for overnight measured after 20 to 24 hrs by broth microdilution method; format: functional
Enterococcus faecalis [13] = experiment: Potency index, ratio of […] MIC to compound MIC against vanomycin-resistant Enterococcus faecalis ATCC 51299
[14] = AUC (0 to 24 hrs) in ICR mouse plasma at 10 mg/kg, iv by LC-MS/MS analysis; format: ADME, organism-based; set-up: dose 10 mg/kg, time < 24 hr, route intravenous
Mus musculus [15] = experiment: Acute toxicity in ICR mouse assessed as increase in survival at 100 mg/kg, iv measured after 2 weeks; format: organism-based; details: in vivo, 336 h
[16] = Volume of distribution at steady state in ICR mouse plasma at 10 mg/kg, iv by LC-MS/MS analysis; format: ADME, organism-based; details: read-out: Vdss
Staphylococcus aureus [17] = experiment: Antibacterial activity against methicillin-resistant Staphylococcus aureus 4N216 infected in ICR mouse assessed as mouse survival rate at 20 mg/kg, iv administered as single dose 30 mins post-infection measured day 7 post infection relative to control; format: functional; details: 4N216, iv
[18] = Cmax in ICR mouse plasma at 10 mg/kg, iv measured after 20 mins by LC-MS/MS analysis; format: ADME, organism-based; set-up: dose 10 mg/kg, route intravenous
[19] = Clearance in ICR mouse plasma at 10 mg/kg, iv by LC-MS/MS analysis; format: ADME, organism-based
Staphylococcus aureus [20] = experiment: Potency index, ratio of vanomycin MIC to compound MIC against vancomycin-intermediate and daptomycin-nonsusceptible methicillin-resistant Staphylococcus aureus Z172; format: functional
Mus musculus [21] = experiment: Acute toxicity in ICR mouse assessed as increase in body weight at 100 mg/kg, iv measured daily for 2 weeks; format: organism-based; details: in vivo, 336 h
[22] = Half life in ICR mouse plasma at 10 mg/kg, iv by LC-MS/MS analysis; format: ADME, organism-based

Structure (SMILES) | MIC (Staphylococcus aureus [1]) | MIC (Staphylococcus aureus [2]) | MIC (Staphylococcus aureus [3]) | MIC (Escherichia coli) | MIC (Acinetobacter baumannii) | MIC (Staphylococcus aureus [4]) | MIC (Staphylococcus aureus [5]) | MIC (Enterococcus faecalis [6]) | MIC (Klebsiella pneumoniae) | MIC (Staphylococcus aureus [7]) | MIC (Pseudomonas aeruginosa) | MIC (Staphylococcus aureus [8]) | MIC (Staphylococcus aureus [9]) | MIC (Staphylococcus aureus [10]) | MIC (Staphylococcus aureus [11]) | MIC (Staphylococcus aureus [12]) | also measured
Oc1ccc(CCNCC(O)Cn2c3ccc(Br)cc3c3cc(Br)ccc32)cc1O (configuration not stated) | 16 µg/mL (≈ 29.9 µM) | 16 µg/mL (≈ 29.9 µM) |  |  |  |  |  |  |  |  |  |  |  |  |  |  | 
OC(Cn1cncn1)Cn1c2ccc(Br)cc2c2cc(Br)ccc21 (configuration not stated) | 16 µg/mL (≈ 35.5 µM) | 16 µg/mL (≈ 35.5 µM) |  |  |  |  |  |  |  |  |  |  |  |  |  |  | 
O[C@H](CNCCc1c[nH]c2ccc(Cl)cc12)Cn1c2ccc(Br)cc2c2cc(Br)ccc21 | 1 µg/mL (≈ 1.74 µM) | 1 µg/mL (≈ 1.74 µM) |  |  |  |  |  |  |  |  |  |  |  |  |  |  | 
OC(CNc1cc(Cl)nc(Cl)n1)Cn1c2ccc(Br)cc2c2cc(Br)ccc21 (configuration not stated) | > 32 µg/mL | > 32 µg/mL |  |  |  |  |  |  |  |  |  |  |  |  |  |  | 
OC(CNCCc1cccc(Cl)c1)Cn1c2ccc(Cl)cc2c2cc(Cl)ccc21 (configuration not stated) |  |  | 0.5 to 1 µg/mL (≈ 1.12 to 2.23 µM) | > 64 µg/mL | > 64 µg/mL | 4 µg/mL (≈ 8.93 µM) | 4 µg/mL (≈ 8.93 µM) | 2 µg/mL (≈ 4.47 µM) | > 64 µg/mL | 4 µg/mL (≈ 8.93 µM) | > 64 µg/mL | 4 µg/mL (≈ 8.93 µM) | 4 µg/mL (≈ 8.93 µM) | 1 µg/mL (≈ 2.23 µM) | 4 µg/mL (≈ 8.93 µM) | 4 µg/mL (≈ 8.93 µM) | 
OC(CNCCc1cccc(F)c1)Cn1c2ccc(Br)cc2c2cc(Br)ccc21 (configuration not stated) | 1 to 2 µg/mL (≈ 1.92 to 3.84 µM) | 1 to 2 µg/mL (≈ 1.92 to 3.84 µM) |  |  |  |  |  |  |  |  |  |  |  |  |  |  | 
Oc1ccccc1CCNCC(O)Cn1c2ccc(Br)cc2c2cc(Br)ccc21 (configuration not stated) | 1 to 2 µg/mL (≈ 1.93 to 3.86 µM) | 1 to 2 µg/mL (≈ 1.93 to 3.86 µM) |  |  |  |  |  |  |  |  |  |  |  |  |  |  | 
OC(CNCCc1c[nH]c2ccc(Cl)cc12)Cn1c2ccc(Br)cc2c2cc(Br)ccc21 (racemic) | 1 µg/mL (≈ 1.74 µM) | 1 µg/mL (≈ 1.74 µM) | 1 µg/mL (≈ 1.74 µM) | > 64 µg/mL | > 64 µg/mL | 1 µg/mL (≈ 1.74 µM) | 2 µg/mL (≈ 3.47 µM) | 1 µg/mL (≈ 1.74 µM) | > 64 µg/mL | 1 µg/mL (≈ 1.74 µM) | > 64 µg/mL | 1 µg/mL (≈ 1.74 µM) | 1 µg/mL (≈ 1.74 µM) | 1 µg/mL (≈ 1.74 µM) | 1 µg/mL (≈ 1.74 µM) | 1 µg/mL (≈ 1.74 µM) | Ratio (Enterococcus faecalis [13]): 4 - 18
OC(CNCCc1c[nH]c2cc(F)ccc12)Cn1c2ccc(Cl)cc2c2cc(Cl)ccc21 (racemic) | 0.5 to 1 µg/mL (≈ 1.06 to 2.13 µM) | 0.5 to 1 µg/mL (≈ 1.06 to 2.13 µM) | 0.5 µg/mL (≈ 1.06 µM) | 4 µg/mL (≈ 8.5 µM) | 8 µg/mL (≈ 17 µM) | 1 µg/mL (≈ 2.13 µM) | 1 µg/mL (≈ 2.13 µM) | 1 µg/mL (≈ 2.13 µM) | > 64 µg/mL | 1 µg/mL (≈ 2.13 µM) | > 64 µg/mL | 1 µg/mL (≈ 2.13 µM) | 1 µg/mL (≈ 2.13 µM) | 1 µg/mL (≈ 2.13 µM) | 1 µg/mL (≈ 2.13 µM) | 1 µg/mL (≈ 2.13 µM) | AUC(0-t) at 24 h [14]: 20500 ng·h/mL; Activity (Mus musculus [15]): Non-Toxic; Vd [16]: 4.9 L/kg; survival at 20 mg/kg (Staphylococcus aureus [17]): 75%; Ratio (Enterococcus faecalis [13]): 4 - 18; Cmax [18]: 29700 ng/mL; clearance [19]: 6.9 mL/min/kg; Ratio (Staphylococcus aureus [20]): 4 - 16; Activity (Mus musculus [21]): Non-Toxic; half-life [22]: 10.3 h
CN[C@H](CC(C)C)C(=O)N[C@H]1C(=O)N[C@@H](CC(N)=O)C(=O)N[C@H]2C(=O)N[C@H]3C(=O)N[C@H](C(=O)N[C@H](C(=O)O)c4cc(O)cc(O)c4-c4cc3ccc4O)[C@H](O)c3ccc(c(Cl)c3)Oc3cc2cc(c3O[C@@H]2O[C@H](CO)[C@@H](O)[C@H](O)[C@H]2O[C@H]2C[C@](C)(N)[C@H](O)[C@H](C)O2)Oc2ccc(cc2Cl)[C@H]1O [VANCOMYCIN] |  |  |  |  |  |  |  | 8 to 16 µg/mL (≈ 5.52 to 11 µM) |  |  |  |  | ≤ 0.5 µg/mL |  |  |  | AUC(0-t) at 24 h [14]: 13700 ng·h/mL; Vd [16]: 0.3 L/kg; survival at 20 mg/kg (Staphylococcus aureus [17]): 100%; Cmax [18]: 58500 ng/mL; clearance [19]: 11.7 mL/min/kg; half-life [22]: 0.6 h
